Experiment [1] relates to cortisone conversion. In words: Acute in vivo cortisone conversion assay. The following applies: male C57BL/6 mice, oral, cortisone challenge 16 hours post dose, serum cortisol. The method, then: Acute In Vivo Cortisone Conversion Assay
In general, compounds are dosed orally into mice, the mice are challenged with a subcutaneous injection of cortisone at a set timepoint after compound injection, and the blood of each animal is collected some time later. Separated serum is then isolated and analyzed for levels of cortisone and cortisol by LC-MS/MS, followed by calculation of mean cortisol and percent inhibition of each dosing group. Specifically, male C57BL/6 mice are obtained from Harlan Sprague Dawley at average weight of 25 grams. Exact weights are taken upon arrival and the mice randomized into groups of similar weights. Compounds are prepared in 1% w-w HEC, 0.25% w-w polysorbate 80, 0.05% w-w Dow Corning antifoam #1510-US at various doses based on assumed average weight of 25 grams. Compounds are dosed orally, 200 μl per animal, followed by a subcutaneous dose, 200 μl per animal, of 30 mg/kg cortisone at 1 to 24 hours post compound dose. At 10 minutes post cortisone challenge, each animal is euthanized for 1 minute in a CO2 chamber, followed by blood collection via cardiac puncture into serum separator tubes. Once fully clotted, tubes are spun at 2500×g, 4° C. for 15 minutes, the serum transferred to wells of 96-well plates (Corning Inc, Costar #4410, cluster tubes, 1.2 ml, polypropylene), and the plates are frozen at −20° C. until analysis by LC-MS/MS. […]

Experiment [2] deals with T1, 11β-HSD1 (Homo sapiens, UniProt P28845).
T1 construct: hTNFα to induce expression of 11β-HSD1; endogenous in cells; host or cells: primary human aortic smooth muscle cells (AoSMC), induced with hTNFα
T1 sequence (P28845 whole entry): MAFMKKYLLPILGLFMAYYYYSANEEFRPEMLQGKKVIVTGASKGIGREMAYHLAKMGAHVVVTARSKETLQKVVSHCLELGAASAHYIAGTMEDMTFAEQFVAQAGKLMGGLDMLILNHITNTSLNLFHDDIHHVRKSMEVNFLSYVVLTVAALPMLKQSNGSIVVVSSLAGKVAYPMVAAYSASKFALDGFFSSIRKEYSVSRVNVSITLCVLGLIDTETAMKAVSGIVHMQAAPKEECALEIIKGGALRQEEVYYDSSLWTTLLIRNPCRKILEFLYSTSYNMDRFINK
In words: Human aortic smooth muscle cell assay. It counts as cell-based. Conditions: primary human AoSMC, hTNFα-induced 11β-HSD1, cortisol formed from cortisone. The method, then:
Human Aortic Smooth Muscle Cell Assay
Primary human aortic smooth muscle cells (AoSMC) are cultured in 5% FBS growth medium to a passage number of 6, then pelleted by centrifugation and resuspended at a density of 9×10^4 cells/mL in 0.5% FBS assay medium containing 12 ng/mL hTNFα to induce expression of 11β-HSD1. Cells are seeded into 96-well tissue culture assay plates at 100 μL/well (9×10^3 cells/well) and incubated for 48 hours at 37° C., 5% CO2. Following induction, cells are incubated for 4 hours at 37° C., 5% CO2 in assay medium containing test compounds then treated with 10 μL/well of 10 μM cortisone solubilized in assay medium, and incubated for 16 hours at 37° C., 5% CO2. Medium from each well is transferred to a plate for subsequent analysis of cortisol using a competitive fluorescence resonance time resolved immunoassay. […] Higher levels of free cortisol result in diminishing energy transfer from the Europium-IgG to the APC-cortisol complex resulting in less APC fluorescence. Fluorescent intensities for Europium and APC are measured using a LJL Analyst AD. Europium and APC […] is measured using 360 nm excitation and 615 nm and 650 nm emission filters respectively. […] Fluorescent intensities measured for APC are modified by dividing by the Eu fluorescence (APC/Eu). […]

One may read the IC50 as the concentration at which inhibition is half-maximal. As to `O=C(c1ccc(-c2cc(Cl)c(CN3CCC(C4CCCCC4)C3=O)c(Cl)c2)cc1)N1CCN(CCF)CC1` (racemic) [Example 5, 3-Cyclohexyl-1-{3,5-dichloro-4′-[4-(2-fluoro-ethyl)-piperazine-1-carbonyl]-biphenyl-4-ylmethyl}-pyrrolidin-2-one], the “% Inhibition after 16 hours” value in experiment [1] (dose of 30 mg/kg) is 84 (dose of 30 (mg/kg)) %. In experiment [2], this molecule displayed an IC50 of 15.4 nM.
As for `O=C(c1ccc(-c2cc(Cl)c(CN3CCC(N4CCCCC4)C3=O)c(Cl)c2)cc1)N1CCC(C(F)(F)F)CC1` (racemic) [Example 16, 1-[3,5-Dichloro-4′-(4-trifluoromethyl-piperidine-1-carbonyl)-biphenyl-4-ylmethyl]-3-piperidin-1-yl-pyrrolidin-2-one], the “% Inhibition after 16 hours” value in experiment [1] (dose of 10 mg/kg) is 38 (dose of 10 (mg/kg)) %. In experiment [2], this molecule returned an IC50 of 294 nM.

Values taken from patent publication US7994176B2, “Inhibitors of 11-beta-hydroxysteroid dehydrogenase 1” (Eli Lilly and Company, priority 2006, dated 2011).
